Experiments:
[1] = Cytotoxicity against human Hs683 cells assessed as growth inhibition after 72 hrs by MTT colorimetric assay; format: functional, cell-based; conditions: Hs 683, 72 h
[2] = Cytotoxicity against human U373 cells assessed as growth inhibition after 72 hrs by MTT colorimetric assay; format: functional, cell-based, U-373MG ATCC; conditions: U373 MG
A549 [3] = test: Cytotoxicity against human A549 cells assessed as growth inhibition after 72 hrs by MTT colorimetric assay; format: functional, cell-based; conditions: A549, 72 h
MCF7 [4] = test: Cytotoxicity against human MCF7 cells assessed as growth inhibition after 72 hrs by MTT colorimetric assay; format: functional, cell-based; conditions: MCF7, 72 h
SK-MEL-28 [5] = test: Cytotoxicity against human SK-MEL-28 cells assessed as growth inhibition after 72 hrs by MTT colorimetric assay; format: functional, cell-based; conditions: SK-MEL-28, 72 h
[6] = Cytotoxicity against mouse B16F10 cells assessed as growth inhibition after 72 hrs by MTT colorimetric assay; format: functional, cell-based; conditions: B16-F10, 72 h
NHDF = test: Cytotoxicity against human NHDF cells assessed as growth inhibition after 72 hrs by MTT colorimetric assay; format: cell-based
[7] = Cytotoxicity against human NHLF cells assessed as growth inhibition after 72 hrs by MTT colorimetric assay; format: cell-based
A549 [8] = test: Cytotoxicity against human A549 cells assessed as cell viability at 50 uM after 72 hrs by MTT colorimetric assay; format: functional; conditions: A549, 72 h, read-out: Activity
[9] = Cytotoxicity against human Hs683 cells assessed as cell viability at 5 uM after 72 hrs by MTT colorimetric assay; format: functional; conditions: Hs 683, 72 h, read-out: Activity
[10] = Cytotoxicity against human Hs683 cells assessed as cell viability at 1 uM after 72 hrs by MTT colorimetric assay; format: functional; conditions: Hs 683, 72 h, read-out: Activity
[11] = Cytotoxicity against human U373 cells assessed as cell viability at 0.5 uM after 72 hrs by MTT colorimetric assay; format: functional, U-373MG ATCC; conditions: U373 MG, read-out: Activity
A549 [12] = test: Cytotoxicity against human A549 cells assessed as cell viability at 0.5 uM after 72 hrs by MTT colorimetric assay; format: functional; conditions: A549, 72 h, read-out: Activity
MCF7 [13] = test: Cytotoxicity against human MCF7 cells assessed as cell viability at 100 uM after 72 hrs by MTT colorimetric assay; format: functional; conditions: MCF7, 72 h, read-out: Activity
[14] = Cytotoxicity against mouse B16F10 cells assessed as cell viability at 1 uM after 72 hrs by MTT colorimetric assay; format: functional; conditions: B16-F10, 72 h, read-out: Activity
A549 [15] = test: Cytotoxicity against human A549 cells assessed as cell viability at 100 uM after 72 hrs by MTT colorimetric assay; format: functional; conditions: A549, 72 h, read-out: Activity
[16] = Cytotoxicity against mouse B16F10 cells assessed as cell viability at 0.5 uM after 72 hrs by MTT colorimetric assay; format: functional; conditions: B16-F10, 72 h, read-out: Activity
[17] = Cytotoxicity against human Hs683 cells assessed as cell viability at 0.05 uM after 72 hrs by MTT colorimetric assay; format: functional; conditions: Hs 683, 72 h, read-out: Activity
MCF7 [18] = test: Cytotoxicity against human MCF7 cells assessed as cell viability at 0.5 uM after 72 hrs by MTT colorimetric assay; format: functional; conditions: MCF7, 72 h, read-out: Activity
SK-MEL-28 [19] = test: Cytotoxicity against human SK-MEL-28 cells assessed as cell viability at 0.5 uM after 72 hrs by MTT colorimetric assay; format: functional; conditions: SK-MEL-28, 72 h, read-out: Activity
[20] = Cytotoxicity against human Hs683 cells assessed as cell viability at 0.5 uM after 72 hrs by MTT colorimetric assay; format: functional; conditions: Hs 683, 72 h, read-out: Activity
SK-MEL-28 [21] = test: Cytotoxicity against human SK-MEL-28 cells assessed as cell viability at 100 uM after 72 hrs by MTT colorimetric assay; format: functional; conditions: SK-MEL-28, 72 h, read-out: Activity
[22] = Cytotoxicity against human Hs683 cells assessed as cell viability at 50 uM after 72 hrs by MTT colorimetric assay; format: functional; conditions: Hs 683, 72 h, read-out: Activity
[23] = Cytotoxicity against mouse B16F10 cells assessed as cell viability at 50 uM after 72 hrs by MTT colorimetric assay; format: functional; conditions: B16-F10, 72 h, read-out: Activity
[24] = Cytotoxicity against human U373 cells assessed as cell viability at 10 uM after 72 hrs by MTT colorimetric assay; format: functional, U-373MG ATCC; conditions: U373 MG, read-out: Activity
A549 [25] = test: Cytotoxicity against human A549 cells assessed as cell viability at 10 uM after 72 hrs by MTT colorimetric assay; format: functional; conditions: A549, 72 h, read-out: Activity
MCF7 [26] = test: Cytotoxicity against human MCF7 cells assessed as cell viability at 5 uM after 72 hrs by MTT colorimetric assay; format: functional; conditions: MCF7, 72 h, read-out: Activity
[27] = Cytotoxicity against human Hs683 cells assessed as cell viability at 100 uM after 72 hrs by MTT colorimetric assay; format: functional; conditions: Hs 683, 72 h, read-out: Activity
MCF7 [28] = test: Cytotoxicity against human MCF7 cells assessed as cell viability at 50 uM after 72 hrs by MTT colorimetric assay; format: functional; conditions: MCF7, 72 h, read-out: Activity
[29] = Cytotoxicity against mouse B16F10 cells assessed as cell viability at 5 uM after 72 hrs by MTT colorimetric assay; format: functional; conditions: B16-F10, 72 h, read-out: Activity

Compound | IC50 [1] | IC50 [2] | IC50 (A549 [3]) | IC50 (MCF7 [4]) | IC50 (SK-MEL-28 [5]) | IC50 [6] | other results
COc1ccc(-c2cc(NC(=S)NNC(=O)c3ccc(C)cc3)cs2)cc1 | 30 µM | > 100 µM | 35 µM | 40 µM | 22 µM | 7 µM | –
Cc1ccc(C(=O)NNC(=S)Nc2csc(-c3ccccc3)c2)cc1 | 37 µM | 62 µM | 40 µM | 30 µM | 40 µM | 24 µM | –
Cc1ccc(C(=O)NNC(=S)Nc2csc(-c3ccc(C)cc3)c2)cc1 | 40 µM | 38 µM | 37 µM | 29 µM | 44 µM | 20 µM | –
COc1cc(C(=O)NNC(=S)Nc2csc(-c3ccccc3)c2)cc(OC)c1OC | 42 µM | 44 µM | 39 µM | 43 µM | 55 µM | 32 µM | –
COc1cc(C(=O)NNC(=S)Nc2csc(-c3ccc(C)cc3)c2)cc(OC)c1OC | 42 µM | 47 µM | 39 µM | 31 µM | 42 µM | 13 µM | –
COc1ccc(C(=O)NNC(=S)Nc2csc(-c3ccccc3)c2)cc1 | 35 µM | 41 µM | 36 µM | 32 µM | 30 µM | 33 µM | –
COc1ccc(C(=O)NNC(=S)Nc2csc(-c3ccc(C)cc3)c2)cc1 | 12 µM | 19 µM | 11 µM | 5 µM | 11 µM | 9 µM | IC50 (NHDF): 22 µM; IC50 [7]: 28 µM
O=C(NNC(=S)Nc1csc(-c2ccccc2)c1)c1ccc(O)cc1 | 80 µM | > 100 µM | 75 µM | 78 µM | 71 µM | 40 µM | –
Cc1ccc(-c2cc(NC(=S)NNC(=O)c3ccc(O)cc3)cs2)cc1 | 49 µM | 64 µM | 44 µM | 42 µM | 46 µM | 48 µM | –
COc1cc(OC)cc(C(=O)NNC(=S)Nc2csc(-c3ccccc3)c2)c1 | 42 µM | 40 µM | 39 µM | 38 µM | 37 µM | 30 µM | –
COc1cc(OC)cc(C(=O)NNC(=S)Nc2csc(-c3ccc(C)cc3)c2)c1 | 37 µM | 41 µM | 32 µM | 26 µM | 38 µM | 13 µM | –
COc1ccc(C(=O)NNC(=S)Nc2csc(-c3ccccc3)c2)cc1OC | 22 µM | 59 µM | 20 µM | 21 µM | 28 µM | 9 µM | –
COc1ccc(C(=O)NNC(=S)Nc2csc(-c3ccc(C)cc3)c2)cc1OC | 39 µM | 47 µM | 36 µM | 11 µM | 19 µM | 7 µM | –
Cc1ccc(-c2nnc(Nc3csc(-c4ccccc4)c3)s2)cc1 | – | > 100 µM | – | 34 µM | > 100 µM | 4 µM | viability at 50 µM (A549 [8]): < 50%; viability at 5 µM [9]: < 50%
Cc1ccc(-c2cc(Nc3nnc(-c4ccc(C)cc4)s3)cs2)cc1 | – | – | – | – | > 100 µM | – | viability at 1 µM [10]: < 50%; viability at 0.5 µM [11]: < 50%; viability at 0.5 µM (A549 [12]): < 50%; viability at 100 µM (MCF7 [13]): < 50%; viability at 1 µM [14]: < 50%
COc1cc(-c2nnc(Nc3csc(-c4ccccc4)c3)s2)cc(OC)c1OC | – | > 100 µM | – | > 100 µM | > 100 µM | – | viability at 100 µM (A549 [15]): < 50%; viability at 0.5 µM [16]: < 50%; viability at 5 µM [9]: < 50%
COc1cc(-c2nnc(Nc3csc(-c4ccc(C)cc4)c3)s2)cc(OC)c1OC | – | – | – | – | – | 12 µM | viability at 0.05 µM [17]: < 50%; viability at 0.5 µM [11]: < 50%; viability at 0.5 µM (A549 [12]): < 50%; viability at 0.5 µM (MCF7 [18]): < 50%; viability at 0.5 µM (SK-MEL-28 [19]): < 50%
COc1ccc(-c2nnc(Nc3csc(-c4ccccc4)c3)s2)cc1 | 5 µM | 92 µM | 8 µM | 60 µM | > 100 µM | 6 µM | –
COc1ccc(-c2nnc(Nc3csc(-c4ccc(C)cc4)c3)s2)cc1 | – | – | – | – | – | – | viability at 0.5 µM [20]: < 50%; viability at 0.5 µM [11]: < 50%; viability at 0.5 µM (A549 [12]): < 50%; viability at 0.5 µM (MCF7 [18]): < 50%; viability at 100 µM (SK-MEL-28 [21]): < 50%; viability at 1 µM [14]: < 50%
Oc1ccc(-c2nnc(Nc3csc(-c4ccccc4)c3)s2)cc1 | 26 µM | 58 µM | 15 µM | 24 µM | 57 µM | 8 µM | –
Cc1ccc(-c2cc(Nc3nnc(-c4ccc(O)cc4)s3)cs2)cc1 | 17 µM | 8 µM | 6 µM | 8 µM | 14 µM | 6 µM | –
COc1cc(OC)cc(-c2nnc(Nc3csc(-c4ccccc4)c3)s2)c1 | – | 92 µM | – | – | > 100 µM | – | viability at 50 µM [22]: < 50%; viability at 100 µM (A549 [15]): < 50%; viability at 100 µM (MCF7 [13]): < 50%; viability at 50 µM [23]: < 50%
COc1cc(OC)cc(-c2nnc(Nc3csc(-c4ccc(C)cc4)c3)s2)c1 | – | – | – | – | > 100 µM | – | viability at 10 µM [24]: < 50%; viability at 10 µM (A549 [25]): < 50%; viability at 5 µM (MCF7 [26]): < 50%; viability at 1 µM [14]: < 50%; viability at 5 µM [9]: < 50%
COc1ccc(-c2nnc(Nc3csc(-c4ccccc4)c3)s2)cc1OC | – | > 100 µM | > 100 µM | 92 µM | > 100 µM | – | viability at 100 µM [27]: < 50%; viability at 0.5 µM [16]: < 50%
COc1ccc(-c2nnc(Nc3csc(-c4ccc(C)cc4)c3)s2)cc1OC | – | > 100 µM | – | – | > 100 µM | – | viability at 0.5 µM (A549 [12]): < 50%; viability at 50 µM (MCF7 [28]): < 50%; viability at 5 µM [29]: < 50%; viability at 5 µM [9]: < 50%

Reference: ChEMBL document CHEMBL3286222, “Synthesis and antiproliferative studies of 5-aryl-2-(3-thienylamino)-1,3,4-thiadiazoles” (Bioorg Med Chem Lett, 2014)
